Inconclusive results and toxic doses are left out.
Test system: CD2F1 mice, L1210 leukemia ip, survival T/C
Experiment: NCI In Vivo Anticancer Drug Screen. Data for tumor model L1210 Leukemia (intraperitoneal) in CD2F1 (CDF1) mice
Details: higher = longer survival
Summary of the method: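 Tumor-bearing mice (transplanted tumor) were split into treated and vehicle control groups, and the measured endpoint of each treated group was divided by that of its vehicle controls.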

[1] = endpoint: mean survival time, dose: 100.0 mg/kg/injection, schedule: Q04DX002 (ip), vehicle: saline with Tween-80
[2] = endpoint: mean survival time, dose: 200.0 mg/kg/injection, schedule: Q04DX002 (ip), vehicle: saline with Tween-80
[3] = endpoint: mean survival time, dose: 400.0 mg/kg/injection, schedule: Q04DX002 (ip), vehicle: saline with Tween-80
[4] = endpoint: mean survival time, dose: 100.0 mg/kg/injection, schedule: Q01DX009 (ip), vehicle: saline with Tween-80
[5] = endpoint: mean survival time, dose: 100.0 mg/kg/injection, schedule: Q04DX003 (ip), vehicle: saline with Tween-80
[6] = endpoint: mean survival time, dose: 200.0 mg/kg/injection, schedule: Q01DX009 (ip), vehicle: saline with Tween-80
[7] = endpoint: mean survival time, dose: 200.0 mg/kg/injection, schedule: Q04DX003 (ip), vehicle: saline with Tween-80
[8] = endpoint: mean survival time, dose: 400.0 mg/kg/injection, schedule: Q01DX009 (ip), vehicle: saline with Tween-80
[9] = endpoint: mean survival time, dose: 400.0 mg/kg/injection, schedule: Q04DX003 (ip), vehicle: saline with Tween-80

Row | Structure (SMILES) | T/C [4] | T/C [5] | T/C [6] | T/C [7] | T/C [8] | T/C [9] | further results
1 | Cc1ccc(S(=O)(=O)OCC2OCOC(COS(=O)(=O)c3ccc(C)cc3)C(OS(=O)(=O)c3ccc(C)cc3)C2OS(=O)(=O)c2ccc(C)cc2)cc1 (centres undefined) | – | – | – | – | – | – | T/C [1]: 88 % of control; T/C [2]: 100 % of control; T/C [3]: 107 % of control
2 | CCCCCCCCCCCCCCCCCCNC(=O)Nc1ccc(C)c(C)c1 | 104 % of control | 91 % of control | 105 % of control | 89 % of control | 105 % of control | 98 % of control | –
3 | COc1cc2ccc(CC(N)=O)cc2cc1OC | 100 % of control | – | 97 % of control | – | 97 % of control | – | –
4 | CCOC(=O)C12CC=CC(CCC1)/C2=N\Nc1ccccc1 (centres undefined) | 108 % of control | 105 % of control | 103 % of control | 103 % of control | 103 % of control | 92 % of control | –
5 | Cn1cc(C2NC(=O)c3ccccc3N2)c2ccccc21 (centres undefined) | – | – | – | – | – | – | T/C (endpoint: median survival time, dose: 100.0 mg/kg/injection, schedule: Q01DX009 (ip), vehicle: Klucel (hydroxypropylcellulose) (HPC)): 119 % of control
6 | Nc1ncnc2snnc12 | – | – | – | – | – | – | T/C (endpoint: mean survival time, dose: 100.0 mg/kg/injection, schedule: Q01DX001 (ip), vehicle: Klucel (hydroxypropylcellulose) (HPC)): 100 % of control; T/C (endpoint: mean survival time, dose: 200.0 mg/kg/injection, schedule: Q01DX001 (ip), vehicle: Klucel (hydroxypropylcellulose) (HPC)): 96 % of control; T/C (endpoint: mean survival time, dose: 400.0 mg/kg/injection, schedule: Q01DX001 (ip), vehicle: Klucel (hydroxypropylcellulose) (HPC)): 100 % of control
7 | c1ccc(COCc2ccccc2Cn2ccnc2)cc1 | – | – | – | – | – | – | T/C (endpoint: mean survival time, dose: 10.0 mg/kg/injection, schedule: Q04DX003 (ip), vehicle: saline): 120 % of control; T/C (endpoint: mean survival time, dose: 20.0 mg/kg/injection, schedule: Q04DX003 (ip), vehicle: saline): 101 % of control; T/C (endpoint: mean survival time, dose: 40.0 mg/kg/injection, schedule: Q04DX003 (ip), vehicle: saline): 95 % of control
8 | N#CC1(C#N)OC(C#N)(C#N)C2C1C=CC1C2C1(C#N)C#N (centres undefined) | – | – | – | – | – | – | T/C (endpoint: mean survival time, dose: 6.25 mg/kg/injection, schedule: Q01DX001 (ip), vehicle: saline with Tween-80): 108 % of control; T/C (endpoint: mean survival time, dose: 12.5 mg/kg/injection, schedule: Q01DX001 (ip), vehicle: saline with Tween-80): 97 % of control; T/C (endpoint: mean survival time, dose: 25.0 mg/kg/injection, schedule: Q01DX001 (ip), vehicle: saline with Tween-80): 97 % of control
9 | CC(C)(O)C(=O)N/N=C/c1ccc(Cl)cc1 | 90 % of control | – | 90 % of control | – | – | – | –
10 | O=CC(Cc1ccccc1)CC(O)c1ccccc1 (centres undefined) | 107 % of control | – | 96 % of control | – | 96 % of control | – | T/C (endpoint: mean survival time, dose: 100.0 mg/kg/injection, schedule: Q01DX001 (ip), vehicle: saline with Tween-80): 95 % of control; T/C (endpoint: mean survival time, dose: 200.0 mg/kg/injection, schedule: Q01DX001 (ip), vehicle: saline with Tween-80): 88 % of control; T/C (endpoint: mean survival time, dose: 400.0 mg/kg/injection, schedule: Q01DX001 (ip), vehicle: saline with Tween-80): 91 % of control
11 | CCC(=O)OCCn1c2ccccc2c2c(C)c3cnccc3c(C)c21 | 110 % of control | 102 % of control | – | 107 % of control | 154 % of control | 123 % of control | –
12 | O=C1C(Cl)=C(c2ccccc2)C(OC2(c3ccccc3)C(Cl)C(=O)C(Cl)C2c2ccccc2)(c2ccccc2)C1Cl (centres undefined) | – | – | – | – | – | – | T/C [1]: 96 % of control; T/C [2]: 101 % of control; T/C [3]: 96 % of control
13 | O=C(CCl)Nc1cccc(Cl)c1 | 92 % of control | 97 % of control | 95 % of control | 111 % of control | – | 104 % of control | –
14 | CCC(=O)Nc1ccc(C)c(Cl)c1 | 95 % of control | 96 % of control | 95 % of control | 95 % of control | 104 % of control | 97 % of control | –
15 | Cc1ccccc1NC(=O)CC#N | 94 % of control | – | – | – | – | – | T/C (endpoint: mean survival time, dose: 25.0 mg/kg/injection, schedule: Q01DX009 (ip), vehicle: saline with Tween-80): 96 % of control; T/C (endpoint: mean survival time, dose: 50.0 mg/kg/injection, schedule: Q01DX009 (ip), vehicle: saline with Tween-80): 96 % of control
16 | CCOC1=C(C)C(=O)C1C (centres undefined) | – | – | – | – | – | – | T/C (endpoint: mean survival time, dose: 100.0 mg/kg/injection, schedule: Q04DX003 (ip), vehicle: saline): 100 % of control; T/C (endpoint: mean survival time, dose: 200.0 mg/kg/injection, schedule: Q04DX003 (ip), vehicle: saline): 94 % of control; T/C (endpoint: mean survival time, dose: 400.0 mg/kg/injection, schedule: Q04DX003 (ip), vehicle: saline): 100 % of control
17 | Cc1ccccc1OS(=O)(=O)c1cccc([N+](=O)[O-])c1 | – | 103 % of control | – | 100 % of control | – | 100 % of control | –
